These results are taken from patent US20060198907A1, “Pharmaceutical, therapeutic, and dietary compositions derived from Lagerstroemia speciosa L. plant” (priority 2004, published 2006).

For this assay, the target named is xanthine oxidase (Homo sapiens, UniProt P47989). As to the kind of experiment: Inhibition of xanthine oxidase activity. Particulars: observed by the inventors, in words. The class given is biochemical.
xanthine oxidase, sequence (P47989 whole entry, species assumed): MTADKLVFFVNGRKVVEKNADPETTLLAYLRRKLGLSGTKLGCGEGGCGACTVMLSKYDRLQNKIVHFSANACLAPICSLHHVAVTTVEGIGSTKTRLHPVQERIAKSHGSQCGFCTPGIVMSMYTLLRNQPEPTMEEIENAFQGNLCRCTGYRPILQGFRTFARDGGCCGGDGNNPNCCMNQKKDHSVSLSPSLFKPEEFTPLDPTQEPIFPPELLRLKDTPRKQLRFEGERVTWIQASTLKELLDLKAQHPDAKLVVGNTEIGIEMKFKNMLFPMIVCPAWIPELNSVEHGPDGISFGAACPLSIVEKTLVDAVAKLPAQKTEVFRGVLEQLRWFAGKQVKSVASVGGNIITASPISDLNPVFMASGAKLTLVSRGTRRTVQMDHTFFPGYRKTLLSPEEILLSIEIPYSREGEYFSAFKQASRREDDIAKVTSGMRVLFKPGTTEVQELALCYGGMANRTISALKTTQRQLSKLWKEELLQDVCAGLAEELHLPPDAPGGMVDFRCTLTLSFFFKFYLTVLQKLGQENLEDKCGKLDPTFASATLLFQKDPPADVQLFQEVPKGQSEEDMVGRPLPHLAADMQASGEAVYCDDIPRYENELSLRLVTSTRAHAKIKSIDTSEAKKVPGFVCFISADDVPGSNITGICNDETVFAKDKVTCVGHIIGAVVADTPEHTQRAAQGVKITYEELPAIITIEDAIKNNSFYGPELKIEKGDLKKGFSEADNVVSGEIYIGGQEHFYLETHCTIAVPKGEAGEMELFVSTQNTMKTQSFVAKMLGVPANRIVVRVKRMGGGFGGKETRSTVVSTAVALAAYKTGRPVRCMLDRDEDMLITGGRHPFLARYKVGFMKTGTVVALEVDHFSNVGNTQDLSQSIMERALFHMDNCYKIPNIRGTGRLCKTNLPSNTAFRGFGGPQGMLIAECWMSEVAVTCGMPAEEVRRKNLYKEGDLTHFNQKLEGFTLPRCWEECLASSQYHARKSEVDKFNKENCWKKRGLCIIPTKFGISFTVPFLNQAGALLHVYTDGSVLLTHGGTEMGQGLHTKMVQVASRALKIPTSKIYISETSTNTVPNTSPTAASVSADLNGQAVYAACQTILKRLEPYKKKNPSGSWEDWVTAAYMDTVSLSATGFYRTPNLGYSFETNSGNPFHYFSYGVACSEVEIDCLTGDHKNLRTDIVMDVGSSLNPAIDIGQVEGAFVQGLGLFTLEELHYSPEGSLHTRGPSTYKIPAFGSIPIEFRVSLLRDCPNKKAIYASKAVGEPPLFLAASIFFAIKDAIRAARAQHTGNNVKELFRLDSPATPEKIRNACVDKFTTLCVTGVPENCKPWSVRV

For the compound `O=C(O)c1cc(O)c(O)c(O)c1Oc1cc2c(=O)oc3c(O)c(O)cc4c(=O)oc(c1O)c2c34` [valoneic acid dilactone], the “inhibition of xanthine oxidase activity” value is “inhibition of xanthine oxidase activity”.
